From US20240115527A1, “CXCR1/CXCR2 INHIBITORS FOR USE IN TREATING MYELOFIBROSIS” (Icahn School of Medicine at Mount Sinai, priority 2020, published 2024)

Legend:
[1] = system: MF CD34+ cells co-cultured with splenic EC; test: Proliferation of MF CD34+ cells co-cultured with LCN2 treated splenic endothelial cells; type: cell-based, human; conditions: reparixin added to co-culture, FIG. 4B
Description: FIGS. 4A and 4B illustrate that addition of a CXCR1/CXCR2 inhibitor reverses effects of IL-8 on MF CD34^+ cells proliferation and lineage differentiation. FIG. 4A illustrates that IL-8 decreased the fraction of normal CD34^+, CD41^+, and CD33^+ cells, but increased the fraction of MF CD34^+, CD41^+, and CD33^+ cells. The effects of IL-8 were eliminated by the addition of the CXCR1/CXCR2 inhibitor ladarixin (Ladx). Normal CD34/CD41/CD33: left bars. MF CD34/CD41/CD33: Right bars. FIG. 4B illustrates that splenic endothelial cells (ECs) promote the proliferation of hematopoietic CD34^+ cells. Shown is fold change in CD34^+ cells cultured alone in the absence of cytokines and that the numbers are increased when the CD34^+ cells were co-cultured with LCN2 treated endothelial cells. The effects of co-cultivation with ECs were eliminated by addition of the CXCR1/CXCR2 antagonist reparixin (RPX).
Similarly, while treatment with LCN2 enhances endothelial cell (EC)-mediated proliferation of MF cells, treatment with the CXCR1/CXCR2 inhibitor reparixin decreased MF CD34^+ proliferation when co-cultured with splenic EC (FIG. 4B).

MF CD34+ cells = test: Colony forming assay (CFU-GM) of cultured MF CD34+ cells with IL-8; type: cell-based, human; conditions: co-treatment with reparixin, FIG. 5A
Description: FIGS. 5A, 5B. 5C, 5D, and 5E illustrate that a CXCR1/CXCR2 inhibitor reverses effects of IL-8 on MF CD34^+ cell colony formation. […] CFU-GM=colony-forming unit-granulocyte-macrophage. FIGS. 5B and 5C illustrate that IL-8 increased CFU-GM colony formation by MF CD34^+ cells in a dose dependent fashion and that the effects of IL-8 were inhibited by treatment with Ladx. FIG. 5B. Normal cells. FIG. 5C. MF cells. […] Con=control. IL-8 concentrations increase from left to right. […] P values were as follows: w/o Ladx: Con vs IL-8—10 ng: 0.159332; Con vs IL-8—20 ng: 0.011976; Con vs IL-8—50 ng: 0.00262; Con vs IL-8—100 ng: 0.00042; w/ 10 μM Ladx: Con vs Ladx: 0.315782; IL-8—10 ng vs plus Ladx: 0.295851; IL-8—20 ng vs plus Ladx: 0.077726; IL-8—50 ng vs plus Ladx: 0.031355; IL-8—100 ng vs plus Ladx: 0.081595.

CC(C)Cc1ccc([C@@H](C)C(=O)NS(C)(=O)=O)cc1 [reparixin, R-(-)-2-(4-isobutylphenyl)-N-methanesulfonyl propionamide]
MF CD34+ proliferation when co-cultured with splenic EC [1]: decreased | effect on IL-8 enhanced colony output of MF CD34+ cells (MF CD34+ cells): ameliorated
